Measured values published in patent US9296698B2, “Amino heteroaryl compounds as beta-secretase modulators and methods of use” (Amgen Inc., priority 2009, dated 2016).
Where two headings read alike, the source gives them in different places.

Experiments:
[1] = biological target: BACE 1 (Beta Secretase enzyme) (Homo sapiens, UniProt P56817); experiment: In vitro enzymatic BACE FRET assay; type: biochemical; design: BACE 1 FRET assay (uM): scale not given here
Method in brief: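 BACE activity read by FRET: peptide substrate (50 nM) carrying fluorophore and quencher across the cleavage site, incubated one hour in 0.05 M acetate pH 4.2, 10% DMSO final, 100 uM genapol. Tris addition raises pH to neutrality to stop the reaction before fluorescence is read.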

[2] = system: Aβ40 in conditioned medium of cells stably expressing Amyloid Precursor Protein (APP); experiment: In vitro BACE cell-based assay (HEK cell assay), Aβ40 sandwich ELISA
Method in brief: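 Cells stably expressing APP received 10-point compound dilutions (top 100 μM or 10 μM; 0.1% DMSO) for 24 h. Secreted Aβ40 was quantified by sandwich ELISA (pAb40 capture, biotinylated 6E10 detection, europium time-resolved fluorescence). IC50 was derived from percent inhibition versus concentration.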

[3] = IC50 range symbols, Table 1, read-out: BACE 1 FRET assay
[4] = Homo sapiens, HEK293, 24 h, IC50 range symbols, Table 1, Aβ40, 24 h incubation, read-out: HEK cell assay
[5] = bound stated, read-out: IC50 value in the FRET BACE enzyme assay
[6] = IC50 range symbols, Table 1, Aβ40, 24 h incubation, read-out: HEK cell assay

Chain of BACE 1 (Beta Secretase enzyme) (P56817 46-501, species assumed): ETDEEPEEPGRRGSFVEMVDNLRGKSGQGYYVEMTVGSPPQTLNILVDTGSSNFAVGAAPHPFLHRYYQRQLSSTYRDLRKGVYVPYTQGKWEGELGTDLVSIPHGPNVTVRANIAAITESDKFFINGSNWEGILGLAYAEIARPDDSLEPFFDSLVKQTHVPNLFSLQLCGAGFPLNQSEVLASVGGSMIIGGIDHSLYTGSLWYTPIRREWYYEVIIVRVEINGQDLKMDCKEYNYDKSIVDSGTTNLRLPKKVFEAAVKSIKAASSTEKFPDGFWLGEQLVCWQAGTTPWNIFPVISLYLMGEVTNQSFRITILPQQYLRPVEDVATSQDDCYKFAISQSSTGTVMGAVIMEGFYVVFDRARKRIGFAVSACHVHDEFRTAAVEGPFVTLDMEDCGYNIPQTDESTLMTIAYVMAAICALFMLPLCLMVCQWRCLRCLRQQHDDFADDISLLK

Molecule	IC50 [1, 3]	IC50 [2, 4]	further results
COc1ccccc1C(C)NC(=O)C(C)Cc1cc2cc(-c3ccccc3C)ccc2nc1N (centres unmarked) [Example 104, 3-(2-amino-6-o-tolylquinolin-3-yl)-N-(1-(2-methoxyphenyl)ethyl)-2-methylpropanamide]	< 0.5 µM	1 to 5 µM	–
Cc1ccccc1-c1cc2cc(CCC(=O)NCC3CCCCC3)c(N)nc2cc1F [Example 96, 3-(2-amino-7-fluoro-6-(2-methylphenyl)-3-quinolinyl)-N-(cyclohexylmethyl)propanamide]	< 0.5 µM	1 to 5 µM	IC50 [1, 5]: < 0.05 µM
C#CC1CC(NC(=O)[C@H](C)Cc2cc3cc(-c4ccccc4C)ccc3nc2N)CCO1 (stereo partly drawn) [Example 160, (R)-3-(2-amino-6-o-tolylquinolin-3-yl)-N-(cis-2-ethynyltetrahydro-2H-pyran-4-yl)-2-methylpropanamide]	< 0.5 µM	< 0.5 µM	–
CNC(=O)C(C)Cc1cc2cc(-c3ccccc3C(C)=O)ccc2nc1N (centres unmarked) [Example 154, 3-(6-(2-acetylphenyl)-2-aminoquinolin-3-yl)-N,2-dimethylpropanamide]	> 5 µM	> 5 µM	–
N#Cc1ccccc1-c1ccc2nc(N)c(CCC(=O)NCC3CCCCC3)cc2c1 [Example 41, 3-(2-amino-6-(2-cyanophenyl)quinolin-3-yl)-N-(cyclohexylmethyl)propanamide]	< 0.5 µM	1 to 5 µM	–
Cc1ccccc1-c1ccc2nc(N)c(CCC(=O)NCCC3CC3)cc2c1 [Example 115, 3-(2-amino-6-o-tolylquinolin-3-yl)-N-(2-cyclopropylethyl)propanamide]	< 0.5 µM	1 to 5 µM	–
Cc1cccc(C(=O)N2CCCC2)c1-c1ccc2nc(N)c(CC(C)C(=O)NC3CC3)cc2c1 (centres unmarked) [Example 150, 3-(2-amino-6-(2-methyl-6-(pyrrolidine-1-carbonyl)phenyl)quinolin-3-yl)-N-cyclopropyl-2-methylpropanamide]	< 0.5 µM	< 0.5 µM	–
Cc1ccccc1-c1ccc2nc(N)c(CCC(=O)NCCC3CCCCC3)cc2c1 [Example 24, 3-(2-amino-6-o-tolylquinolin-3-yl)-N-(2-cyclohexylethyl)propanamide]	< 0.5 µM	< 0.5 µM	–
Cc1ccccc1-c1ccc2nc(N)c(CC(C)C(=O)N[C@H](C)C3CCCCC3)cc2c1 (stereo partly drawn) [Example 47, 3-(2-amino-6-o-tolylquinolin-3-yl)-N-((R)-1-cyclohexylethyl)-2-methylpropanamide]	< 0.5 µM	1 to 5 µM	–
CC(Cc1cc2cc(-c3cccc(Cl)c3)ccc2nc1N)C(=O)NC1CCOC(C)(C)C1 (centres unmarked) [Example 169, 3-(2-amino-6-(3-chlorophenyl)-3-quinolinyl)-N-(2,2-dimethyltetrahydro-2H-pyran-4-yl)-2-methylpropanamide]	< 0.5 µM	< 0.5 µM	IC50 ([2]; Homo sapiens, HEK293, bound stated in text, read-out: IC50 value in the BACE cell-based in-vitro assay): < 0.1 µM
CC(Cc1cc2cc(-c3ccccn3)ccc2nc1N)C(=O)NCCC(C)(C)C (centres unmarked) [Example 122, 3-(2-amino-6-(pyridin-2-yl)quinolin-3-yl)-N-(3,3-dimethylbutyl)-2-methylpropanamide]	< 0.5 µM	0.5 to 1 µM	–
3-(3-amino-7-o-tolylnaphthalen-2-yl)-N-((R)-1-(2-fluorophenyl)ethyl)propanamide [Example 55]	< 0.5 µM	–	IC50 [2, 6]: 1 to 5 µM
Cc1ccccc1-c1ccc2nc(N)c(CC(C)C(=O)N[C@H](C)c3ccccc3OC(F)F)cc2c1 (stereo partly drawn) [Example 77, 3-(2-amino-6-o-tolylquinolin-3-yl)-N-((R)-1-(2-(difluoromethoxy)phenyl)ethyl)-2-methylpropanamide]	< 0.5 µM	1 to 5 µM	–
Cc1ccccc1-c1ccc2nc(N)c(CC(C)C(=O)NC3CCOC4(CCC4)C3)cc2c1 [Example 170, (2R)-3-(2-amino-6-(2-methylphenyl)-3-quinolinyl)-2-methyl-N-(5-oxaspiro[35]non-8-yl)propanamide]	< 0.5 µM	< 0.5 µM	–
3-(3-amino-7-o-tolylnaphthalen-2-yl)-N-(pyridin-2-ylmethyl)propanamide [Example 36]	< 0.5 µM	–	IC50 [2, 6]: 1 to 5 µM
Nc1nc2ccc(-c3cccnc3)cc2cc1CCC(=O)NCC1CCCCC1 [Example 34, 3-(2-amino-6-(pyridin-3-yl)quinolin-3-yl)-N-(cyclohexylmethyl)propanamide]	–	1 to 5 µM	BACE 1 FRET assay (uM) ([1]; IC50 range symbols, Table 1): _++
N-(3-fluoro-3-methylbutyl)-2-methyl-3-(6-(3-methylpyridin-2-yl)quinolin-3-yl)propanamide [Example 101]	< 0.5 µM	–	IC50 [2, 6]: < 0.5 µM

Molecule	IC50 [1, 3]	IC50 [2, 4]	further results
CC(Cc1cc2cc(-c3ncccc3CCN3CCN(C)CC3)ccc2nc1N)C(=O)NCCC(C)(C)C (centres unmarked) [Example 124, 3-(2-amino-6-(3-(2-(4-methylpiperazin-1-yl)ethyl)pyridin-2-yl)quinolin-3-yl)-N-(3,3-dimethylbutyl)-2-methylpropanamide]	0.5 to 1 µM	< 0.5 µM	–
Cc1ccccc1-c1ccc2nc(N)c(CCC(=O)NCCC(C)(C)O)cc2c1 [Example 141, 3-(2-amino-6-(2-methylphenyl)-3-quinolinyl)-N-(3-hydroxy-3-methylbutyl)propanamide]	< 0.5 µM	0.5 to 1 µM	–
Cc1ccccc1-c1ccc2nc(N)c(C[C@@H](C)C(=O)NCc3cccnn3)cc2c1 [Example 81, (R)-3-(2-amino-6-o-tolylquinolin-3-yl)-2-methyl-N-(pyridazin-3-ylmethyl)propanamide]	< 0.5 µM	0.5 to 1 µM	IC50 [1, 5]: < 0.05 µM
Cc1ccccc1-c1ccc2nc(N)c(C[C@@H](C)C(=O)NC3CCOC(C)C3)cc2c1 (stereo partly drawn) [Example 158, (2R)-3-(2-amino-6-o-tolylquinolin-3-yl)-2-methyl-N-(2-methyltetrahydro-2H-pyran-4-yl)propanamide]	< 0.5 µM	< 0.5 µM	–
CC(Cc1cc2cc(-c3ncccc3Cl)ccc2nc1N)C(=O)NC[C@@H]1CCCCO1 (stereo partly drawn) [Example 82, 3-(2-amino-6-(3-chloropyridin-2-yl)quinolin-3-yl)-2-methyl-N-(((S)-tetrahydro-2H-pyran-2-yl)methyl)propanamide]	0.5 to 1 µM	1 to 5 µM	–
Cc1ccccc1-c1ccc2nc(N)c(CCC(=O)NCc3ccccc3)cc2c1 [Example 23, 3-(2-amino-6-o-tolylquinolin-3-yl)-N-benzylpropanamide]	< 0.5 µM	< 0.5 µM	–
CC(Cc1cc2cc(-c3ccccc3C#N)ccc2nc1N)C(=O)NC1CCOC(C)(C)C1 (centres unmarked) [Example 142, 3-(2-amino-6-(2-cyanophenyl)-3-quinolinyl)-N-(2,2-dimethyltetrahydro-2H-pyran-4-yl)-2-methylpropanamide]	< 0.5 µM	< 0.5 µM	–
Cc1ccccc1-c1ccc2nc(N)c(CCC(=O)NCc3ccnnc3)cc2c1 [Example 139, 3-(2-amino-6-o-tolylquinolin-3-yl)-N-(pyridazin-4-ylmethyl)propanamide]	1 to 5 µM	> 5 µM	–
Cc1ccc(CNC(=O)CCc2cc3cc(-c4ccccc4C)ccc3nc2N)c(F)c1 [Example 68, N-(2-fluoro-4-methylbenzyl)-3-(2-amino-6-o-tolylquinolin-3-yl)propanamide]	1 to 5 µM	> 5 µM	–
Cc1ccccc1-c1ccc2nc(N)c(CCC(=O)NCC3CCOCC3)cc2c1 [Example 19, 3-(2-amino-6-o-tolylquinolin-3-yl)-N-((tetrahydro-2H-pyran-4-yl)methyl)propanamide]	< 0.5 µM	1 to 5 µM	–
Cc1cccc(C(=O)N2CCCC2)c1-c1ccc2nc(N)c(CC(C)C(=O)NCc3ccccc3)cc2c1 (centres unmarked) [Example 151, 3-(2-amino-6-(2-methyl-6-(pyrrolidine-1-carbonyl)phenyl)quinolin-3-yl)-N-benzyl-2-methylpropanamide]	< 0.5 µM	< 0.5 µM	–
COc1ccccc1C(C)NC(=O)CCc1cc2cc(-c3ccccc3C)ccc2nc1N (centres unmarked) [Example 105, 3-(2-amino-6-o-tolylquinolin-3-yl)-N-(1-(2-methoxyphenyl)ethyl)propanamide]	< 0.5 µM	1 to 5 µM	–
CNC(=O)C(C)Cc1cc2cc(-c3ccccc3C(=O)C3CCCCC3)ccc2nc1N (centres unmarked) [Example 157, 3-(2-amino-6-(2-(cyclohexanecarbonyl)phenyl)quinolin-3-yl)-N,2-dimethylpropanamide]	< 0.5 µM	0.5 to 1 µM	–
Cc1ccccc1-c1ccc2nc(N)c(CCC(=O)NC3CCOCC3)cc2c1 [Example 15, 3-(2-amino-6-o-tolylquinolin-3-yl)-N-(tetrahydro-2H-pyran-4-yl)propanamide]	< 0.5 µM	> 5 µM	–
Cc1ccccc1-c1ccc2nc(N)c(C[C@@H](C)C(=O)NC3CCCC(C)(C)C3)cc2c1 (stereo partly drawn) [Example 162, (2R)-3-(2-amino-6-(2-methylphenyl)-3-quinolinyl)-N-(3,3-dimethylcyclohexyl)-2-methylpropanamide]	< 0.5 µM	< 0.5 µM	–
3-(3-amino-7-o-tolylnaphthalen-2-yl)-N-((R)-1-cyclohexylethyl)propanamide [Example 31]	< 0.5 µM	–	IC50 [2, 6]: > 5 µM
CC(Cc1cc2cc(-c3ccccc3C(=O)C3CCCCC3)ccc2nc1N)C(=O)NC1CCOC(C)(C)C1 (centres unmarked) [Example 147, 3-(2-amino-6-(2-(cyclohexylcarbonyl)phenyl)-3-quinolinyl)-N-(2,2-dimethyltetrahydro-2H-pyran-4-yl)-2-methylpropanamide]	< 0.5 µM	< 0.5 µM	–
